Results from US7632952B2, “Benzothiazoles and the use thereof as medicaments” (Aventis Pharma S.A., priority 2004, dated 2009).
Where a name gives a salt, the structure may show the parent alone.

Columns and labels:
CDK4/cyclin D1 = CDK4/cyclin D1 (Homo sapiens, UniProt P11802); assay: CDK4/cyclin D1 Flashplate test in 96-well format; format: biochemical
Protocol: 2. CDK4/cyclin D1 Protocol:
Purification of the CDK4-HA/cyclin D1-(His)6 Complex by IMAC (Immobilized Metal Affinity Chromatography):
Two recombinant baculoviruses bearing the human sequences coding, respectively, for CDK4-HA (C-terminal fusion with the hemaglutinin tag) and for cyclin D1-(His)6 are used to coinfect insect Sf9 cells. Sixty hours after the start of the coinfection, the cells are harvested by centrifugation and then frozen at −20° C. until the time of use.
CDK4/cyclin D1 Flashplate Test in 96-Well Format
A test in 96-well “Flashplate” plates coated with streptavidin is used to evaluate the inhibition of the CDK4/cyclin D1 kinase complex by the products of the invention. To perform this test, the biotinylated peptide substrate, a fragment of the pRb protein (biotinyl-[…]-amide) is dissolved at a concentration of 2 mM in kinase buffer (HEPES/NaOH 50 mM, NaCl 1 mM, MgCl2 5 mM, pH 7.5) in order to constitute a stock solution stored at −20° C. in the form of 110 μl aliquots. On the day of the experiment, an aliquot of this solution is thawed and diluted in kinase buffer containing 1 mM of dithiothreitol, and added to the buffer extemporaneously, in order to obtain a final peptide concentration of 2.571 μM. 70 μl of this solution are added to each well of the Flashplate in order to obtain a final substrate concentration of 1.8 μM during the enzymatic reaction, performed in a final volume of the reaction medium of 100 μl (cf. below). Intermediate dilutions of inhibitors (products of the invention) at various concentrations are prepared in DMSO from stock solutions at 10 mM in separate tubes. 1000 μM, 333.3 μM, 111.1 μM, 37.03 μM, 12.35 μM, 4.11 μM and 1.37 μM dilutions are thus prepared. 1 μl of each of these solutions (or 1 μl of DMSO for the controls) is then transferred into the wells of the test plate. Into each well are then added 19 μl of a solution of a mixture of adenosine triphosphate (ATP) and of ATPy^33P in the kinase buffer at a concentration of 5.26 μM of ATP total and 78.9 μCi/ml of ^33P. The enzymatic reaction is triggered by addition of 10 μl per well of a solution of CDK4/cyclin D1 at 250 nM in the kinase buffer containing 1 mM of dithiothreitol (or 10 μl of kinase buffer containing 1 mM of dithiothreitol for the reaction blanks).
(§1) After addition of all the reagents, the test plate is incubated at 30° C. with orbital stirring at 650 rpm. After the incubation, the plate is washed three times with 300 μl per well of PBS (phosphate-buffered saline, pH=7.4, without calcium or magnesium, reference 10010-015, Gibco BRL). The incorporation of ^33P into the substrate peptide is quantified by scintillation counting using a Packard Topcount.NXT machine. The inhibitory activity of the products of the invention is evaluated by measuring the inhibitory concentration that allows a 50% reduction in the enzymatic activity (IC50).

Aurora 2 = target: T1, Aurora 2 (Homo sapiens, UniProt O14965); assay: Aurora 2 kinase radioactivity scintillation test; format: biochemical
T1 construct: A complete recombinant Aurora 2 enzyme, the N-terminal end of which was labeled with histidine; His tag (N); made in house; host or cells: E. coli
T1 sequence (O14965 1-403): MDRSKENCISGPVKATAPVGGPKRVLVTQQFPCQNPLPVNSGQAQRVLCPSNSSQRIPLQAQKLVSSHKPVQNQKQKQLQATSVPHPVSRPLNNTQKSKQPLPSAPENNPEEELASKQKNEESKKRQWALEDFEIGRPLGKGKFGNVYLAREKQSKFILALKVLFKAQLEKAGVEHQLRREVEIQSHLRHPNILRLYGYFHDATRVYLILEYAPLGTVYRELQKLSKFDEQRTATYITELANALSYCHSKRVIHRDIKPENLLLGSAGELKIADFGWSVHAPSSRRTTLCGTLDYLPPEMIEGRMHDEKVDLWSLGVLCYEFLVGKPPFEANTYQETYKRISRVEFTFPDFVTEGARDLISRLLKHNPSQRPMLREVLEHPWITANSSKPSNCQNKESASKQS
Protocol: The inhibitory effect of the compounds toward the kinase Aurora 2 is determined via a radioactivity scintillation test.
A complete recombinant Aurora 2 enzyme, the N-terminal end of which was labeled with histidine, was expressed in E. coli and purified to a quality close to homogeneity.
The C-terminal fragment (Q1687-H2101) of an NuMA (nuclear protein which is associated with the Mitotic Apparatus) expressed in E. coli, and the N-terminal end of which was labeled with histidine, was purified by chromatography with nickel chelate and used as substrate in the Aurora 2 kinase test.
The kinase activity of Aurora 2 is measured by scintillation on a microplate saturated with nickel chelate (New England Nuclear, SMP107 model). Each well contains 100 μl of the following solution: 0.02 μM of Aurora 2; 0.5 μM of NuMA substrate; 1 μM of ATP supplemented with 0.5 μCi of ATP-[^33P]. The solutions are incubated for 45 minutes at 37° C. The test buffer is then removed and the wells are rinsed twice with 300 μl of kinase buffer. The radioactivity is measured in each well using a Packard Model Top Count NXT machine.
The background noise is measured in duplicate in wells containing the radioactive ATP alone containing buffered kinase treated in the same manner as for the other samples.
The activity of the control is determined by measuring in duplicate the radioactivity in the complete test mixture (ATP, Aurora 2 and NuMA substrate), in the absence of test compound.
The inhibition of the activity of Aurora 2 with a compound of the invention is expressed as a percentage of inhibition of the control activity in the absence of test compound. Staurosporin is added to each plate as inhibition control.

CDK2/cyclin E = CDK2/cyclin E (Homo sapiens, UniProt P24941); assay: CDK2/cyclin E Flashplate test in 96-well format; format: biochemical; details: read-out: CDK2 IC50
Protocol: 1. Protocol CDK2/cyclin E:
Purification of the CDK2/cyclin E-(His)6 Complex by IMAC (Immobilized Metal Affinity Chromatography):
Two recombinant baculoviruses bearing the human sequences coding, respectively, for CDK2 and cyclin E (the latter comprising a C-terminal hexahistidine tag) are used to coinfect insect Sf21 cells. Two to three days after the start of coinfection, the cells are harvested by centrifugation and then stored at −40° C. until the time of use. After thawing and mechanical lysis of the cells, the complex present in the lysis supernatant is purified by affinity chromatography on nickel (IMAC), and stored at −80° C.
CDK2/cyclin E Flashplate Test in 96-Well Format
A format in 96-well plates coated with streptavidin is used to test the activity of the compounds on the kinase activity of CDK2/cyclin E.
To perform this test, the biotinylated peptide substrate, a fragment of the pRb protein (biotinyl-[…]-OH) is dissolved at a concentration of 1 mM in kinase buffer (HEPES/NaOH 50 mM, NaCl 1 mM, MgCl2 5 mM, pH 7.5) in order to constitute a stock solution stored at −20° C. in the form of 110 μl aliquots. On the day of the experiment, an aliquot of this solution is thawed and diluted in kinase buffer containing 1 mM of dithiothreitol, and added to the buffer extemporaneously, in order to obtain a concentration of 14.3 μM. 70 μl of this solution are added to each well of the Flashplate in order to obtain a final substrate concentration of 10 μM during the enzymatic reaction, performed in a final volume of the reaction medium of 100 μl (cf. below).
Intermediate dilutions of inhibitors (products of the invention) at various concentrations are prepared in DMSO from stock solutions at 10 mM in separate tubes. 1000 μM, 333.3 μM, 111.1 μM, 37.03 μM, 12.35 μM, 4.11 μM and 1.37 μM dilutions are thus prepared. 1 μl of each of these solutions (or 1 μl of DMSO for the controls) is transferred into the wells of the test plate.
Into each well are then added 19 μl of a solution of a mixture of adenosine triphosphate (ATP) and of ATPy^33P in the kinase buffer at a concentration of 5.26 μM of ATP total and 52.6 μCi/ml of ^33P. The enzymatic reaction is triggered by addition of 10 μl per well of a solution of CDK2/cyclin E at 200 nM in the kinase buffer containing 1 mM of dithiothreitol (or 10 μl of kinase buffer containing 1 mM of dithiothreitol for the reaction blanks).
After addition of all the reagents, the plate is incubated at 30° C. with orbital stirring at 650 rpm.
as §1, with “When” for “After addition of all”, “incubation” for “reagents, the test plate”, “complete,” for “incubated at 30° C. with orbital stirring at 650 rpm. After the incubation,”, “the” for “the substrate”

HeLa = HeLa proliferation; format: cell-based; details: Homo sapiens, read-out: HeLa proliferation EC50 (nM) DG

Sequence of CDK4/cyclin D1 (P11802 whole entry): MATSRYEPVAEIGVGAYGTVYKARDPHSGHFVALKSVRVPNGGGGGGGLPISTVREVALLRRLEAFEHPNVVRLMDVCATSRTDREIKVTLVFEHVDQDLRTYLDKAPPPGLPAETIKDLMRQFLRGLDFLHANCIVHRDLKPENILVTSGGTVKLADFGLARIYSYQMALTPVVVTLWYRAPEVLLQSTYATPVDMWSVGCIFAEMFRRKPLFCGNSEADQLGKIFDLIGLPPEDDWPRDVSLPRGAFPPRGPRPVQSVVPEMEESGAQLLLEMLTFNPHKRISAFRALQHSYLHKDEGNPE
Sequence of CDK4/cyclin D1 (P24385 whole entry partner): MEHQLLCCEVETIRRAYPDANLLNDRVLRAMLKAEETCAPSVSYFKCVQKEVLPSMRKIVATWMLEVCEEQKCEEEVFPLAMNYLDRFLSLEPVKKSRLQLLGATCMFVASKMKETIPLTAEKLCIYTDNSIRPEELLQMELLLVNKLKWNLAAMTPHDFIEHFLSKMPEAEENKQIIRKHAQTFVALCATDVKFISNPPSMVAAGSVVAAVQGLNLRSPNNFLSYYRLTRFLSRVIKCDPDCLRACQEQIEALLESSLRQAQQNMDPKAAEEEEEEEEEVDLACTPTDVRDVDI

SMILES | IC50 (CDK4/cyclin D1) [µM] | IC50 (Aurora 2) [µM] | IC50 (CDK2/cyclin E) [µM] | EC50 (HeLa) [nM]
O=C(CCC1CCNCC1)Nc1nc2ccc(OS(=O)(=O)c3cccs3)cc2s1 [Example 33a, Thiophene-2-sulfonic acid 2-(3-piperid-4-ylpropionylamino)benzothiazol-6-yl ester; compound with trifluoroacetic acid] | > 10 | 0.436 | 3.24 | 
CCN(CC)CCC(=O)Nc1nc2ccc(OS(=O)(=O)c3cccs3)cc2s1 [Example 33g, Thiophene-2-sulfonic acid 2-(3-diethyl-aminopropionylamino)benzothiazol-6-yl ester; compound with trifluoroacetic acid] | > 10 | 1.9 | 5 | 
O=C(CCC1CCNCC1)Nc1nc2ccc(OS(=O)(=O)c3ccc(NCCNCCO)cc3)cc2s1 [Example 25c, 4-[2-(2-Hydroxyethyl-amino)-ethylamino] benzenesulfonic acid 2-(3-piperid-4-ylpropionyl-amino)benzothiazol-6-yl ester hydrochloride] | 3.89 |  | 2.64 | > 12500
O=C(CCC1CCNCC1)Nc1nc2ccc(OS(=O)(=O)c3ccc(NCCCn4ccnc4)cc3)cc2s1 [Example 25a, 4-(3-Imidazol-1-ylpropyl-amino)benzenesulfonic acid 2-(3-piperid-4-ylpropionyl-amino)benzothiazol-6-yl ester hydrochloride] | 1.7 |  | 0.365 | > 12500
CC(C)NCCNc1ccc(S(=O)(=O)Oc2ccc3nc(NC(=O)C(C)C)sc3c2)cc1 [Example 75, 4-(2-isopropylaminoethylamino)benzenesulfonic acid 2-isobutyrylaminobenzothiazol-6-yl ester; compound with trifluoroacetic acid] | 0.874 |  | 0.445 | 195
CC(C)N(CCNc1ccc(S(=O)(=O)Oc2ccc3nc(NC(=O)CCCCCN)sc3c2)cc1)C(C)C [Example 49, 4-(2-diisopropylaminoethylamino)benzenesulfonic acid 2-(6-aminohexanoylamino)benzothiazol-6-yl ester hydrochloride] | 0.328 |  | 0.183 | 2700
